Experimental data published in PubChem BioAssay AID248 (DTP/NCI, 2004).
Several values for one entry are separate records, joined by “and”; a condition that tells them apart may be missing. Equal entries are not always repeated. Toxic doses and inconclusive results are not listed. No stated cut-off is given here; in the data, active means T/C of 150% or more; inactive means T/C below 125%.

Test system: L1210 leukemia ip in BDF1 mice, survival T/C
Experiment: NCI In Vivo Anticancer Drug Screen. Data for tumor model L1210 Leukemia (intraperitoneal) in B6D2F1 (BDF1) mice
Conditions: endpoint: mean survival time, higher = longer survival
Method in brief: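 Read-out is survival time, reported as the treated-group measurement over the vehicle-control measurement.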

[1] = dose: 50.0 mg/kg/injection, schedule: Q01DX001 (ip), vehicle: saline
[2] = dose: 100.0 mg/kg/injection, schedule: Q01DX001 (ip), vehicle: saline
[3] = dose: 200.0 mg/kg/injection, schedule: Q01DX001 (ip), vehicle: saline
[4] = dose: 50.0 mg/kg/injection, schedule: Q04DX002 (ip), vehicle: saline
[5] = dose: 100.0 mg/kg/injection, schedule: Q04DX002 (ip), vehicle: saline
[6] = dose: 25.0 mg/kg/injection, schedule: Q01DX009 (ip), vehicle: saline with Tween-80
[7] = dose: 50.0 mg/kg/injection, schedule: Q01DX009 (ip), vehicle: saline with Tween-80
[8] = dose: 100.0 mg/kg/injection, schedule: Q04DX003 (ip), vehicle: saline with Tween-80
[9] = dose: 200.0 mg/kg/injection, schedule: Q04DX003 (ip), vehicle: saline with Tween-80
[10] = dose: 100.0 mg/kg/injection, schedule: Q01DX009 (ip), vehicle: Klucel (hydroxypropylcellulose) (HPC)
[11] = dose: 200.0 mg/kg/injection, schedule: Q01DX009 (ip), vehicle: Klucel (hydroxypropylcellulose) (HPC)
[12] = dose: 400.0 mg/kg/injection, schedule: Q01DX001 (ip), vehicle: saline

Measured: T/C

COC(=O)C1OC1c1cc(OC)ccc1OC (configuration not stated)
inactive: dose: 100.0 mg/kg/injection, schedule: Q01DX001 (ip), vehicle: saline with Tween-80 102 % of control | dose: 100.0 mg/kg/injection, schedule: Q04DX003 (ip), vehicle: saline 102 % of control | dose: 200.0 mg/kg/injection, schedule: Q01DX001 (ip), vehicle: saline with Tween-80 103 % of control | dose: 200.0 mg/kg/injection, schedule: Q04DX003 (ip), vehicle: saline 100 % of control | dose: 400.0 mg/kg/injection, schedule: Q01DX001 (ip), vehicle: saline with Tween-80 89 % of control | dose: 400.0 mg/kg/injection, schedule: Q04DX003 (ip), vehicle: saline 97 % of control

COc1ccc(Cl)cc1NS(=O)(=O)c1c(C)cc(C)cc1C
inactive: dose: 100.0 mg/kg/injection, schedule: Q01DX009 (ip), vehicle: saline 104 % of control | dose: 200.0 mg/kg/injection, schedule: Q01DX009 (ip), vehicle: saline 96 % of control | dose: 400.0 mg/kg/injection, schedule: Q01DX009 (ip), vehicle: saline 111 % of control

O=C(OC1CCCC2CCCC21)c1ccc([N+](=O)[O-])cc1 (configuration not stated)
inactive: dose: 100.0 mg/kg/injection, schedule: Q01DX001 (ip), vehicle: carboxymethylcellulose (CMC) 93 % of control | dose: 200.0 mg/kg/injection, schedule: Q01DX001 (ip), vehicle: carboxymethylcellulose (CMC) 95 % of control | dose: 400.0 mg/kg/injection, schedule: Q01DX001 (ip), vehicle: carboxymethylcellulose (CMC) 98 % of control

Cc1c(CCNC=O)cc(C)c2c3c(oc12)CCCC3
inactive: [1] 101 % of control | [2] 104 % of control | [3] 104 % of control

[N-]=[N+]=NC(=O)C1C(c2ccccc2)=C1c1ccccc1
inactive: dose: 100.0 mg/kg/injection, schedule: Q01DX001 (ip), vehicle: steriod suspending solution 93 % of control | dose: 200.0 mg/kg/injection, schedule: Q01DX001 (ip), vehicle: steriod suspending solution 106 % of control | dose: 400.0 mg/kg/injection, schedule: Q01DX001 (ip), vehicle: steriod suspending solution 98 % of control

O=C(CCl)N=c1cc(-c2ccc(Cl)cc2)ss1
inactive: [4] 98 % of control | [5] 98 % of control

N#CC(C#N)N=Nc1ccc(S(=O)(=O)Nc2ccccn2)cc1
inactive: dose: 75.0 mg/kg/injection, schedule: Q01DX001 (ip), vehicle: saline 95 % of control | dose: 150.0 mg/kg/injection, schedule: Q01DX001 (ip), vehicle: saline 90 % of control

CC(=O)Nc1nc(Cl)c([N+](=O)[O-])c(SCc2ccccc2)n1
inactive: [6] 90 % of control | [7] 93 % of control and 97 % of control | dose: 100.0 mg/kg/injection, schedule: Q01DX009 (ip), vehicle: saline with Tween-80 101 % of control and 104 % of control | [8] 87 % of control | [9] 98 % of control

CC(=O)[O][Sn]([CH2]c1ccccc1)([CH2]c1ccccc1)[CH2]c1ccccc1
inactive: dose: 0.5 mg/kg/injection, schedule: Q04DX003 (ip), vehicle: saline with Tween-80 97 % of control | dose: 1.0 mg/kg/injection, schedule: Q04DX003 (ip), vehicle: saline with Tween-80 96 % of control | dose: 3.0 mg/kg/injection, schedule: Q04DX003 (ip), vehicle: saline with Tween-80 99 % of control | dose: 12.0 mg/kg/injection, schedule: Q01DX009 (ip), vehicle: saline with Tween-80 97 % of control | [6] 100 % of control

CCC(N)C(O)C(F)(F)C(F)(F)C(F)(F)F (configuration not stated)
inactive: [2] 112 % of control | [3] 103 % of control

CCOC(=O)Nc1cc(N)cc(NC(=O)OCC)c1
inactive: dose: 50.0 mg/kg/injection, schedule: Q01DX009 (ip), vehicle: Klucel (hydroxypropylcellulose) (HPC) 101 % of control | [10] 104 % of control | [11] 106 % of control

CCC(C)(C)N
inactive: [2] 91 % of control | [3] 97 % of control | [12] 101 % of control

CC(=O)c1cn(C2CC(O)C(CO)O2)c(=O)[nH]c1=O (configuration not stated)
inactive: [1] 117 % of control | [4] 96 % of control | [2] 111 % of control | [5] 105 % of control | [3] 105 % of control | dose: 200.0 mg/kg/injection, schedule: Q04DX002 (ip), vehicle: saline 121 % of control

Cc1[nH]c(N)nc(=S)c1CCCNc1ccc(C(=O)NC(CCC(=O)O)C(=O)O)cc1 (configuration not stated)
inactive: [1] 104 % of control | [2] 98 % of control | [10] 93 % of control | dose: 100.0 mg/kg/injection, schedule: Q04DX003 (ip), vehicle: Klucel (hydroxypropylcellulose) (HPC) 93 % of control | [3] 101 % of control | [11] 104 % of control | dose: 200.0 mg/kg/injection, schedule: Q04DX003 (ip), vehicle: Klucel (hydroxypropylcellulose) (HPC) 93 % of control | [12] 98 % of control | dose: 400.0 mg/kg/injection, schedule: Q01DX009 (ip), vehicle: Klucel (hydroxypropylcellulose) (HPC) 98 % of control | dose: 400.0 mg/kg/injection, schedule: Q04DX003 (ip), vehicle: Klucel (hydroxypropylcellulose) (HPC) 88 % of control

NC(=O)C(F)(F)C(F)(F)C(F)(F)F
inactive: dose: 50.0 mg/kg/injection, schedule: Q01DX001 (ip), vehicle: Klucel (hydroxypropylcellulose) (HPC) 97 % of control | dose: 100.0 mg/kg/injection, schedule: Q01DX001 (ip), vehicle: Klucel (hydroxypropylcellulose) (HPC) 97 % of control | dose: 200.0 mg/kg/injection, schedule: Q01DX001 (ip), vehicle: Klucel (hydroxypropylcellulose) (HPC) 103 % of control

O=C1CNC(=O)N1c1cccc(Cl)c1
inactive: [8] 100 % of control | [9] 100 % of control | dose: 400.0 mg/kg/injection, schedule: Q04DX003 (ip), vehicle: saline with Tween-80 102 % of control

O=[N+]([O-])/C=C\c1cc2c3c(c1)CCCN3CCC2
inactive: dose: 3.13 mg/kg/injection, schedule: Q01DX001 (ip), vehicle: saline with Tween-80 95 % of control | dose: 3.13 mg/kg/injection, schedule: Q04DX003 (ip), vehicle: saline with Tween-80 98 % of control | dose: 6.25 mg/kg/injection, schedule: Q01DX001 (ip), vehicle: saline with Tween-80 94 % of control | dose: 6.25 mg/kg/injection, schedule: Q04DX003 (ip), vehicle: saline with Tween-80 93 % of control | dose: 12.5 mg/kg/injection, schedule: Q01DX001 (ip), vehicle: saline with Tween-80 95 % of control and 93 % of control | dose: 12.5 mg/kg/injection, schedule: Q01DX009 (ip), vehicle: saline with Tween-80 100 % of control | dose: 12.5 mg/kg/injection, schedule: Q04DX003 (ip), vehicle: saline with Tween-80 97 % of control | dose: 25.0 mg/kg/injection, schedule: Q01DX001 (ip), vehicle: saline with Tween-80 93 % of control | [6] 102 % of control | dose: 50.0 mg/kg/injection, schedule: Q01DX001 (ip), vehicle: saline with Tween-80 97 % of control | [7] 97 % of control

C=C1CC(c2ccc(S(=O)(=O)N3CCOCC3)cc2)OC1=O (configuration not stated)
inactive: dose: 1.56 mg/kg/injection, schedule: Q01DX009 (ip), vehicle: Klucel (hydroxypropylcellulose) (HPC) 94 % of control | dose: 3.12 mg/kg/injection, schedule: Q01DX009 (ip), vehicle: Klucel (hydroxypropylcellulose) (HPC) 106 % of control | dose: 6.25 mg/kg/injection, schedule: Q01DX009 (ip), vehicle: Klucel (hydroxypropylcellulose) (HPC) 106 % of control | dose: 12.5 mg/kg/injection, schedule: Q01DX009 (ip), vehicle: Klucel (hydroxypropylcellulose) (HPC) 105 % of control | dose: 25.0 mg/kg/injection, schedule: Q01DX009 (ip), vehicle: Klucel (hydroxypropylcellulose) (HPC) 93 % of control | dose: 100.0 mg/kg/injection, schedule: Q04DX002 (ip), vehicle: Klucel (hydroxypropylcellulose) (HPC) 95 % of control | dose: 200.0 mg/kg/injection, schedule: Q04DX002 (ip), vehicle: Klucel (hydroxypropylcellulose) (HPC) 113 % of control

CCC(C)C1(C)C(=O)N(C)C(=S)N(C)C1=O (configuration not stated)
inactive: dose: 5.0 mg/kg/injection, schedule: Q01DX001 (ip), vehicle: saline 95 % of control | dose: 10.0 mg/kg/injection, schedule: Q01DX001 (ip), vehicle: saline 91 % of control | dose: 20.0 mg/kg/injection, schedule: Q01DX001 (ip), vehicle: saline 96 % of control | dose: 40.0 mg/kg/injection, schedule: Q01DX001 (ip), vehicle: saline 89 % of control

ClC/C=C/C[P+](c1ccccc1)(c1ccccc1)c1ccccc1
inactive: dose: 1.56 mg/kg/injection, schedule: Q01DX009 (ip), vehicle: saline 89 % of control | dose: 3.12 mg/kg/injection, schedule: Q01DX009 (ip), vehicle: saline 99 % of control | dose: 6.25 mg/kg/injection, schedule: Q01DX009 (ip), vehicle: saline 95 % of control
